According to patent publication US20020094522A1, “Means and methods for monitoring non-nucleoside reverse transcriptase inhibitor antiretroviral therapy and guiding therapeutic decisions in the treatment of HIV/AIDS” (priority 2000, published 2002):

Legend:
[1] = test system: RTV-300 (patient sample 97-300); assay: Phenotypic susceptibility assay, RTV-300; format: cell-based, HIV-1; details: RTV-300, patient-derived pool
Description: (§1) Transfections were performed using a calcium-phosphate precipitation procedure. […] Cell lysates were assayed for luciferase activity (FIG. 3).
(§2) The drug inhibition curves are shown in (FIG. 3).
A resistance test vector was constructed as described in Example 1 from a patient sample designated 97-300. This patient had been previously treated with d4T and 3TC (NRTIs), indinavir (a PRI) and efavirenz (an NNRTI). Isolation of viral RNA and RT/PCR was used to generate a patient derived segment that comprised viral sequences coding for all of PR and aa 1-313 of RT. The PDS was inserted into an indicator gene viral vector to generate a resistance test vector designated RTV-300. RTV-300 was then tested in a phenotypic assay to determine accurately and quantitatively the level of susceptibility to a panel of anti-retroviral drugs. […] An IC50 was determined for the resistance test vector pool for each drug tested. The pattern of susceptibility to all of the drug tested was examined and compared to known patterns of susceptibility.

[2] = test system: RTV-1058 Clone 5 (L100I and K103N); assay: Phenotypic susceptibility assay, RTV-1058 clone 5; format: cell-based, HIV-1
Description: (§3) The resistance test vectors containing a functional luciferase gene cassette were constructed and host cells were transfected with the resistance test vector DNA. The resistant test vectors contained patient-derived reverse transcriptase and protease sequences that were either susceptible or resistant to the antiretroviral agents, such as nucleoside reverse transcriptase inhibitors, non-nucleoside reverse transcriptase inhibitors and protease inhibitors. […] The IC50 values were determined by plotting percent drug inhibition vs. log10 drug concentration.
(§4) Host cells were seeded in 10-cm-diameter dishes and were transfected several days after plating with resistance test vector plasmid DNA and the envelope expression vector. […] HIV capsid protein (p24) levels in the harvested cell culture media were determined by an EIA method as described by the manufacturer (SIAC; Frederick, Md.). […] The inhibitory effect of the drug was determined using the following equation: […]
(§5) A resistance test vector was constructed as described in Example 1 from a patient sample designated 98-1058. […] An IC50 was determined for the resistance test vector pool for each drug tested.

[3] = test system: RTV-1058 Clone 10 (L100I, K103N and Y188L); assay: Phenotypic susceptibility assay, RTV-1058 clone 10; format: cell-based, HIV-1
Description: as §3, §4, §5

[4] = test system: P236L-RTV (HIV reverse transcriptase P236L); assay: Phenotypic susceptibility assay, P236L-RTV; format: cell-based, HIV-1; details: P236L mutation alone
Description: as §1, §2
Resistance test vectors were constructed containing the P236L mutation alone and in combination with other known drug resistance mutations (K103N, Y181C) that are known to modulate the susceptibility of HIV-1 to NNRTIs. […] The P236L mutation was also introduced into a RTV containing mutations at K103N, Y181C or both (K103N+Y181C).

[5] = test system: patient 780 virus (RT K103N, P225H); assay: Phenotypic susceptibility assay, patient 780; format: cell-based, HIV; details: patient 780, FIG. 8B
From the text: as §3, with “inhibitors. The resistance test vector viral particles produced by transfecting the resistance test vector DNA into host cells, either in the presence or absence of protease inhibitors, were used to infect target host cells grown either in the absence of NRTI or NNRTI or in the presence of increasing concentrations of the drug.” for “inhibitors.”
as §4

[6] = test system: Y181C-RTV (HIV reverse transcriptase Y181C); assay: Phenotypic susceptibility assay, Y181C-RTV; format: cell-based, HIV-1
From the text: as §3, with “inhibitors. The resistance test vector viral particles produced by transfecting the resistance test vector DNA into host cells, either in the presence or absence of protease inhibitors, were used to infect target host cells grown either in the absence of NRTI or NNRTI or in the presence of increasing concentrations of the drug.” for “inhibitors.”
as §4

[7] = test system: Y188H-RTV (HIV reverse transcriptase Y188H)
From the text: The resistance test vectors containing a functional luciferase gene cassette were constructed and host cells were transfected with the resistance test vector DNA. The resistant test vectors contained patient-derived reverse transcriptase and protease sequences that were either susceptible or resistant to the antiretroviral agents, such as nucleoside reverse transcriptase inhibitors, non-nucleoside reverse transcriptase inhibitors and protease inhibitors. The resistance test vector viral particles produced by transfecting the resistance test vector DNA into host cells, either in the presence or absence of protease inhibitors, were used to infect target host cells grown either in the absence of NRTI or NNRTI or in the presence of increasing concentrations of the drug. The amount of luciferase activity produced in infected target host cells in the presence of drug was compared to the amount of luciferase produced in infected target host cells in the absence of drug. Drug resistance was measured as the amount of drug required to inhibit by 50% the luciferase activity detected in the absence of drug (inhibitory concentration 50%, IC50). The IC50 values were determined by plotting percent drug inhibition vs. log10 drug concentration.
Host cells were seeded in 10-cm-diameter dishes and were transfected several days after plating with resistance test vector plasmid DNA and the envelope expression vector. Transfections were performed using a calcium-phosphate precipitation procedure. The cell culture media containing the DNA precipitate was replaced with fresh medium, from one to 24 hours, after transfection. Cell culture media containing resistance test vector viral particles was harvested one to four days after transfection and was passed through a […] filter before being stored at −80° C. HIV capsid protein (p24) levels in the harvested cell culture media were determined by an EIA method as described by the manufacturer (SIAC; Frederick, Md.). Before infection, target cells (293 and 293/T) were plated in cell culture media. Control infections were performed using cell culture media from mock transfections (no DNA) or transfections containing the resistance test vector plasmid DNA without the envelope expression plasmid. One to three or more days after infection the media was removed and cell lysis buffer (Promega) was added to each well. […] The inhibitory effect of the drug was determined using the following equation: […]
where RLUluc [drug] is the relative light unit of luciferase activity in infected cells in the presence of drug and RLUluc is the Relative Light Unit of luciferase activity in infected cells in the absence of drug. IC50 values were obtained from the sigmoidal curves that were generated from the data by plotting the percent inhibition of luciferase activity vs. the log10 drug concentration.

K103N-Y188L-RTV = assay: Phenotypic susceptibility assay, K103N-Y188L-RTV; format: cell-based, HIV-1; details: site directed mutant
Description: as §3, §4
(§6) The mutations Y188L, L100I and K103N were introduced alone and in combinationn into resistance test vectors using the mega-primer method for site-directed mutagenesis (Sakar and Sommar, Ibid.). […] We determined the pattern of phenotypic susceptibility to the NNRTIs, delavirdine, nevlrapine and efavirenz, in all 6 vectors.

L100I-K103N-RTV = assay: Phenotypic susceptibility assay, L100I-K103N-RTV; format: cell-based, HIV-1; details: site directed mutant
Description: as §3, §4, §6

L100I-K103N-Y188L-RTV = assay: Phenotypic susceptibility assay, L100I-K103N-Y188L-RTV; format: cell-based, HIV-1; details: site directed mutant
Description: as §3, §4, §6

[8] = test system: Tyr181Cys (Y181C) mutation variant; details: Y181C variant selected during nevirapine monotherapy; cited from earlier work

Row | Structure (SMILES) | fold decrease in susceptibility (IC50) [1] | fold loss of susceptibility (IC50) [2] | fold loss of susceptibility (IC50) [3] | change in susceptibility compared to wild type reference RTV [4] | susceptibility/resistance profile [5] | fold loss of susceptibility compared to wild type control RTV ([6]; Y181C-RTV, site directed mutant) | fold loss of susceptibility compared to wild type control RTV ([6]; {}) | fold loss of susceptibility compared to wild type control RTV [7] | fold loss of susceptibility compared to wild type control RTV (K103N-Y188L-RTV) | fold loss of susceptibility compared to wild type control RTV (L100I-K103N-RTV) | fold loss of susceptibility compared to wild type control RTV (L100I-K103N-Y188L-RTV) | reduction in sensitivity [8]
1 | CC(C)Nc1cccnc1N1CCN(C(=O)c2cc3cc(NS(C)(=O)=O)ccc3[nH]2)CC1 [delavirdine] | 25 fold | 250 fold | greater than 250 fold | less susceptible to delavirdine than a wild type reference RTV | reduced susceptibility | – | – | – | – | – | – | –
2 | O=C1Nc2ccc(Cl)cc2[C@@](C#CC2CC2)(C(F)(F)F)O1 [efavirenz] | – | – | – | – | – | 4 fold | 3 fold | – | – | – | – | –
3 | Cc1ccnc2c1NC(=O)c1cccnc1N2C1CC1 [nevirapine] | greater than 800 fold | 120 fold | greater than 800 fold | no significant change in nevirapine susceptibility | reduced susceptibility | – | – | 3.5 fold | greater than 800 fold | 70 fold | greater than 800 fold | 100 fold
